# Laboratory results: patent US11312688B2, “Pyrazole compound” (Sumitomo Dainippon Pharma Co., Ltd., priority 2011, dated 2022)
# Molecular target: T1, human serotonin 2C receptor (h-5-HT2C) (Homo sapiens (Human), UniProt P28335)
# Assay: [3H] mesulergine binding assay to evaluate affinity for human 5-HT2C receptor
# Settings: Test Ex. 2, h-5-HT2C/CHO membrane preparation, read-out: 5-HT2C receptor binding inhibition constant Ki
# Method: Mesulergine Binding Assay to Evaluate Affinity for Human 5-HT2C Receptor
# Preparation of the Cells and Membrane Preparations
# In the experiment, human serotonin 2C receptor (h-5-HT2C) was expressed in CHO cells (h-5-HT2C/CHO). The cells were incubated with UltraCHO Lipuid (trademark) (manufactured by BioWhitakker) containing 1% FBS, 400 μg/mL Geneticin, 100 U/mL penicillin-100 μg/mL streptomycin (all manufactured by Sigma Aldrich) and 250 μg/mL Zeosin (manufactured by InvivoGen) in an incubator containing 5% CO2; detached and collected using 50 mmol/L Tris-HCl (pH=7.4); homogenized with a homogenizer manufactured by Teflon (trademark); and then centrifuged (48,000×g, 25 min, 4° C.). […]
# A solution of 200 μL in total was prepared by mixing 50 μL of [^3H] mesulergine (manufactured by GE Healthcare) diluted with 50 mmol/L Tris-HCl (pH=7.4) (final concentration: about 2 nmol/L), 149 μL of the h-5-HT2C/CHO membrane preparation (protein amount: 20 μg/well), and 1 μL of the test drug dissolved in dimethylsulfoxide. […] The glass fiber filter was washed twice with 250 μL of 50 mmol/L Tris-HCl (pH=7.4), placed in a plastic vial containing 4 mL of liquid scintillator (ACS-II, manufactured by Amersham) or Ecoscint A (manufactured by National Diagnostics), and the remaining radioactivity on the filter paper was assayed with a liquid scintillation counter. […]
# T1 sequence (P28335 whole entry, looked up): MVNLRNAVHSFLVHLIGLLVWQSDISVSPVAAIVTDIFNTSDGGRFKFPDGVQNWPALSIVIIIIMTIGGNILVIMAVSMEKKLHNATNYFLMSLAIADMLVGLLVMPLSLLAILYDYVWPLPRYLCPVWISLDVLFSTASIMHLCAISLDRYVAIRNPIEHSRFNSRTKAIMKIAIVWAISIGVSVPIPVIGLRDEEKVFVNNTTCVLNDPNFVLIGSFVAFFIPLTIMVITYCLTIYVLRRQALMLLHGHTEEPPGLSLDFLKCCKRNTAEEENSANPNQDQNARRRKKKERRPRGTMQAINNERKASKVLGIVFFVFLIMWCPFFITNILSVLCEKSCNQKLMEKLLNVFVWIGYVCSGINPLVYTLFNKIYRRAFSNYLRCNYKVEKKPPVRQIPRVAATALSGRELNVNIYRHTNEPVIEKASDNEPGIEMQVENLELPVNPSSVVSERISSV
row,Molecule,Ki
1,"CNCc1cc(OCc2cc(Cl)ccc2F)n(CC2CCCCO2)n1 (single isomer, unassigned; (+)) [Example 475, (+)-1-{5-[(5-chloro-2-fluorobenzyl)oxy]-1-(tetrahydro-2H-pyran-2-ylmethyl)-1H-pyrazol-3-yl}-N-methylmethanamine]",19 nM

# Molecular target: T1, human serotonin 2C receptor (h-5-HT2C)
# Assay: 5-HT2C receptor agonistic action assay (FLIPR Calcium 4, h-5-HT2C/CHO cells; agonistic / inverse agonistic action)
# Assay type: cell-based
# Settings: not given
# Method: 3-1. The Cells and Inoculation Thereof
# In the experiment, human serotonin 2C receptor (h-5-HT2C) was expressed in CHO cells (h-5-HT2C/CHO). The cells were incubated with UltraCHO Lipuid (trademark) (manufactured by BioWhitakker) containing 1% FBS, 400 μg/mL Geneticin, 100 U/mL penicillin-100 μg/mL streptomycin (all manufactured by Sigma Aldrich) and 250 μg/mL Zeosin (manufactured by InvivoGen) in an incubator containing 5% CO2. On the day before using the cells, they were detached and collected using 250 μg/mL Trypsin solution (manufactured by Nacalai Tesque), then inoculated in a 96 well flat clear bottom black polystyrene TC-treated microplates (manufactured by Corning) at 40000 cells/well/60 μL in an incubator containing 5% CO2 for 16 hours to 24 hours.
# 3-2. 5-HT2C Receptor Agonistic Action Assay
# The 5-HT2C receptor agonistic action was evaluated with FLIPR Calcium 4 Assay kit (manufactured by Molecular Devices). In specific, to the cells inoculated in the plate were added Component A of FLIPR Calcium 4 Assay kit dissolved in 100 mL of HHBP buffer (1×Hanks buffer, 20 mmol/L HEPES, both manufactured by Gibco) at an amount of 40 μL/well, and the cells were incubated in an incubator containing 5% CO2 for 1 hour. Then, the cells were set in FLIPR TETRA (trademark) (manufactured by Molecular Devices), to the cells was added the test material diluted with HHBP buffer, 2.5 mmol/L Probenecid (manufactured by Sigma) (concentration after dilution: 10 μmol/L) at an amount of 20 μL/well, and the fluorescence was measured. Then, in order to evaluate the antagonistic action of the test material, 20 μL/well of 5-HT solution (manufactured by Sigma, final concentration: 0.1 nmol/L) was further added to the cells, and the fluorescence was measured.
# The 5-HT2C receptor agonistic action of each test material was calculated as a rate of fluorescence enhancement wherein 100% was defined as a value when the cells were given 10 μmol/L 5-HT. Furthermore, the 5-HT2C receptor inverse agonistic action was calculated as a rate of fluorescence decay wherein −100% was defined as a value when the cells were given 10 μmol/L SB206553 (manufactured by Sigma Aldrich). A lower value of the 5-HT2C receptor agonistic action of the test material means that the material has a higher antagonistic action. In particular, when the value of the 5-HT2C receptor agonistic action of the test material is below 0%, the material has an inverse agonistic action for 5-HT2C receptor.
row,Molecule,5-HT2C receptor agonistic action
1,"Cl.NCc1cc(OCc2cc(F)ccc2F)n(CC2CCCC2)n1 [Example 347, 1-{1-(Cyclopentylmethyl)-5-[(2,5-difluorobenzyl)oxy]-1H-pyrazol-3-yl}methanamine Hydrochloride]",−114%
2,"CNCc1cc(OC(C)c2cccc(Cl)c2)n(CC2CCCCC2)n1.Cl (stereo not drawn) [Example 350, 1-{5-[1-(3-Chlorophenyl)ethoxy]-1-(cyclohexylmethyl)-1H-pyrazol-3-yl}-N-methylmethanamine Hydrochloride]",−92%
3,"CNCc1cc(OCc2ccccc2)n(C(CF)C2CCCCC2)n1.Cl (stereo not drawn) [Example 330, 1-[5-(Benzyloxy)-1-(1-cyclohexyl-2-fluoroethyl)-1H-pyrazol-3-yl]-N-methylmethanamine Hydrochloride]",−82%
4,"CNCc1cc(OCc2ccccc2F)n(Cc2ccc(F)cc2)n1 [Example 218, 1-{1-(4-fluorobenzyl)-5-[(2-fluorobenzyl)oxy]-1H-pyrazol-3-yl}-N-methylmethanamine]",−111%
5,"CNCc1cc(OCc2cccc(Cl)c2)n(CC2CCc3ccccc3O2)n1.Cl (stereo not drawn) [Example 341, 1-{5-[(3-Chlorobenzyl)oxy]-1-(3,4-dihydro-2H-chromen-2-yl-methyl)-1H-pyrazol-3-yl}-N-methylmethanamine Hydrochloride]",−71%
6,N-Benzyl-1-(cyclohexylmethyl)-3-[(methyl]-1H-pyrazol-5-amine Dihydrochloride [Example 357],−120%
7,"CNCc1cc(SCc2ccccc2)n(Cc2ccccc2)n1.Cl [Example 355, 1-[1-Benzyl-5-(benzylsulfanyl)-1H-pyrazol-3-yl]-N-methylmethanamine Hydrochloride]",−72%
8,CNCc1cc(OCc2ccc(F)cc2C)n(CC2CCCCO2)n1 (stereo not drawn) [Compound 108],−117%
9,CNCc1cc(OCc2cc(Cl)ccc2F)n(CCC(C)OC)n1 (stereo not drawn) [Compound 405],−90%
10,"CNCc1cc(OCc2cc(Cl)ccc2F)n(CC2CCCCO2)n1 (single isomer, unassigned; (+)) [Example 475, (+)-1-{5-[(5-chloro-2-fluorobenzyl)oxy]-1-(tetrahydro-2H-pyran-2-ylmethyl)-1H-pyrazol-3-yl}-N-methylmethanamine]",−95%
11,"CNCc1cc(OCc2ccccc2)n(CCCc2ccccc2)n1 [Example 3, 1-[5-(Benzyloxy)-1-(3-phenylpropyl)-1H-pyrazol-3-yl]-N-methylmethanamine]",−91%
12,"CNCc1cc(OCc2cc(F)ccc2F)n(CCC(C)(C)F)n1.Cl [Example 481, 1-{5-[(2,5-Difluorobenzyl)oxy]-1-(3-fluoro-3-methylbutyl)-1H-pyrazol-3-yl}-N-methylmethanamine Hydrochloride]",−109%
13,"CCNCc1cc(OCc2cc(F)ccc2F)n(CC2CCCCC2)n1 [Example 344, N-({1-(Cyclohexylmethyl)-5-[(2,5-difluorobenzyl)oxy]-1H-pyrazol-3-yl}methyl)ethanamine]",−82%
14,"CNCc1cc(OCc2cc(Cl)ccc2F)n(CCC(C)(C)OC)n1 [Example 275, 1-{5-[(5-chloro-2-fluorobenzyl)oxy]-1-(3-methoxy-3-methylbutyl)-1H-pyrazol-3-yl}-N-methylmethanamine]",−88%
15,"CNCc1cc(OCc2cc(Cl)ccc2F)n(CCC(C)(C)F)n1.Cl [Example 482, 1-{5-[(5-Chloro-2-fluorobenzyl)oxy]-1-(3-fluoro-3-methylbutyl)-1H-pyrazol-3-yl}-N-methylmethanamine Hydrochloride]",−116%
16,CNCc1cc(OCc2cccc(OC)c2)n(CC2CCCCC2)n1 [Compound 42],−106%
17,"CNCc1cc(OCc2ccccc2)n(C(C)C2CCCC2)n1.Cl (stereo not drawn) [Example 288, 1-[5-(Benzyloxy)-1-(1-cyclopentylethyl)-1H-pyrazol-3-yl]-N-methylmethanamine Hydrochloride]",−80%
18,CNCc1cc(OCc2cc(Cl)ccc2F)n(CC2(OC)CCCCC2)n1 [Compound 434],−87%
19,"CNCc1cc(OCc2ccccc2)n(C(CO)C2CCCCC2)n1.Cl (stereo not drawn) [Example 328, 2-{5-(Benzyloxy)-3-[(methylamino)methyl]-1H-pyrazol-1-yl}-2-cyclohexyl-ethanol Hydrochloride]",−116%
20,"CNCc1cc(OCc2cc(Cl)ccc2F)n(CCC2(O)CCCC2)n1.Cl [Example 435, 1-(2-{5-[(5-Chloro-2-fluorobenzyl)oxy]-3-[(methylamino)-methyl]-1H-pyrazol-1-yl}ethyl)cyclopentanol Hydrochloride]",−125%
21,"CNCc1cc(OC(F)(F)c2ccccc2)n(CC2CCCCC2)n1.Cl [Example 349, 1-{1-(Cyclohexylmethyl)-5-[difluoro(phenyl)methoxy]-1H-pyrazol-3-yl}-N-methylmethanamine Hydrochloride]",−82%
22,"CNCc1cc(OCc2ccc(F)cc2F)n(CC2CCCC2)n1 [Example 144, 1-{1-(cyclopentylmethyl)-5-[(2,4-difluorobenzyl)oxy]-1H-pyrazol-3-yl}-N-methylmethanamine]",−127%
23,CNCc1cc(OCc2cc(F)c(F)cc2F)n(CCC2CC2)n1 [Example 426],−99%
24,"CNCc1cc(OCc2ccccc2)n(CC2CCCCC2)n1 [Example 5, 1-[5-(Benzyloxy)-1-(cyclohexylmethyl)-1H-pyrazol-3-yl]-N-methylmethanamine]",−91%

# Same assay, conditions: Test Ex. 3; test material 10 μmol/L; 100% = 10 μmol/L 5-HT, −100% = 10 μmol/L SB206553; below 0% = inverse agonistic action
row,Molecule,5-HT2C receptor agonistic action
1,"CNCc1cc(OCc2cc(Cl)ccc2F)n(CC(C)C)n1 [Example 256, 1-{5-[(5-chloro-2-fluorobenzyl)oxy]-1-(2-methylpropyl)-1H-pyrazol-3-yl}-N-methylmethanamine]",−97%
2,"CNC(C)c1cc(OCc2cc(F)ccc2F)n(CCC2CCCC2)n1 (stereo not drawn) [Example 315, 1-{1-(2-cyclopentylethyl)-5-[(2,5-difluorobenzyl)oxy]-1H-pyrazol-3-yl}-N-methylethanamine]",−84%
3,"CNCc1cc(OCc2cc(F)ccc2F)n(CCC(C)(C)C)n1 [Example 266, 1-{5-[(2,5-difluorobenzyl)oxy]-1-(3,3-dimethylbutyl)-1H-pyrazol-3-yl}-N-methylmethanamine]",−86%
4,"CNC(C)c1cc(OCc2cc(F)ccc2F)n(CCC2CCCC2)n1 (single isomer, unassigned; (+)) [Example 477, (+)-1-{1-(2-cyclopentylethyl)-5-[(2,5-difluorobenzyl)-oxy]-1H-pyrazol-3-yl}-N-methylethanamine]",−94%
5,"CNCc1cc(OCc2cc(Cl)ccc2F)n(CC(C)(C)C)n1 [Example 259, 1-{5-[(5-chloro-2-fluorobenzyl)oxy]-1-(2,2-dimethylpropyl)-1H-pyrazol-3-yl}-N-methylmethanamine]",−119%
6,"CNC(C)c1cc(OCc2cc(F)ccc2F)n(CCC2CCCC2)n1 (single isomer, unassigned; (-)) [Example 476, (−)-1-{1-(2-cyclopentylethyl)-5-[(2,5-difluorobenzyl)-oxy]-1H-pyrazol-3-yl}-N-methylethanamine]",−72%
7,CCC(CC)n1nc(CNC)cc1OCc1ccc(F)cc1Cl [Example 253],−86%

# Molecular target: human serotonin transporter (h-SERT) (Homo sapiens (Human), UniProt P31645)
# Assay: [3H] citalopram binding assay to evaluate human serotonin reuptake inhibitory action (h-SERT binding assay)
# Settings: h-SERT binding inhibition constant Ki, Test Ex. 1
# Method: Citalopram Binding Assay to Evaluate Human Serotonin Reuptake Inhibitory Action
# In the experiment, human serotonin transporter (h-SERT) was expressed in CHO cells (h-SERT/CHO). The cells were incubated with F12 containing 10% FCS, 500 μg/mL Geneticin and 100 U/mL penicillin-100 μg/mL streptmycin (all manufactured by Sigma Aldrich) in an incubator containing 5% CO2; detached and collected using a SERT buffer [50 mmol/L Tris-HCl comprising 120 mmol/L NaCl and 5 mmol/L KCl (pH=7.4)]; homogenized with a homogenizer manufactured by Teflon (trademark); and then centrifuged (50,000×g, 30 min, 4° C.). The precipitate was suspended again in the appropriate amount of SERT buffer (to give a membrane preparation), and stored at −80° C. until used. The amount of protein in the membrane preparation was assayed by Dye Reagent Concentrate (manufactured by BIO-RAD) using bovine serum albumin (manufactured by Sigma Aldrich) as a standard.
# The [^3H] citalopram binding was measured according to the method disclosed in Owens M. J. et al., J. Pharm. […] The glass fiber filter was washed twice with 250 HL of the SERT buffer, placed in a plastic vial containing 4 mL of liquid scintillator (ACS-II, manufactured by Amersham) or Ecoscint A (manufactured by National Diagnostics), and the remaining radioactivity on the filter paper was assayed with a liquid scintillation counter.
row,Molecule,Ki
1,"CNCc1cc(OCc2cc(Cl)ccc2F)n(CC2CCCCO2)n1 (single isomer, unassigned; (+)) [Example 475, (+)-1-{5-[(5-chloro-2-fluorobenzyl)oxy]-1-(tetrahydro-2H-pyran-2-ylmethyl)-1H-pyrazol-3-yl}-N-methylmethanamine]",9.2 nM
